Measurements as given in patent publication US12630528B2, “Amino aryl derivative useful as diacylglycerol acyltransferase 2 inhibitor and use thereof” (LG CHEM, LTD., priority 2019, dated 2026).

Target: T1, human DGAT2 (Homo sapiens, UniProt Q96PD7)
T1 construct: FLAG (DYKDDDDK); made in house; host or cells: Sf-21 insect cells (BacPAK baculovirus system); membrane fraction used
T1 sequence (Q96PD7 1-388): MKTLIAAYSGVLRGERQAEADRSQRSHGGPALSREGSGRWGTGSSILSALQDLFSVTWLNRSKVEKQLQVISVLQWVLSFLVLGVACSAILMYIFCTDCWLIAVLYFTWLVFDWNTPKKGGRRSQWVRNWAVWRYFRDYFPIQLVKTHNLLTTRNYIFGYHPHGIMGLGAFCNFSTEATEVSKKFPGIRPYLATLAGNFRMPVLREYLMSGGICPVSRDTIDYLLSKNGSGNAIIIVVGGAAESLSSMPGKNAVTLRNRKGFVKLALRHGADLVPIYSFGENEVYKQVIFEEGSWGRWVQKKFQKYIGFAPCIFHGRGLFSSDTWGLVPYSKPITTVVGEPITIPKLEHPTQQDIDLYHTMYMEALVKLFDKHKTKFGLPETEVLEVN
Assay: DGAT2 enzyme activity inhibition, Phospholipid FlashPlate SPA
Format: biochemical
Conditions: recombinant human DGAT2 membrane protein from Sf-21 cells; inhibition of [14C]-TG production; 37° C.
Procedure: In order to prepare the pBacPAK9-DGAT2, which is DGAT2 expression vector, the human DGAT2 gene amplified by polymerase chain reaction (PCR) was cloned into the EcoR1 and Xho1 sites of the pBacPAK9 (clonctech) vector. The nucleotide sequence of the primers used in PCR was the forward primer 5′ […] (SEQ. ID. NO: 2). The composition of the reaction solution was to contain 50 ng of cDNA clone (OriGene), 200 μM of dATP, dCTP, dTTP, dGTP, 200 nM of each primer, 1 unit of Tag DNA Polymerase (Toyobo), 1×PCR buffer, and the final volume was adjusted to 20 μl. The reaction conditions were denatured at 95° C. for 5 minutes, followed by 30 times of 94° C. for 20 seconds, 60° C. for 20 seconds, and 72° C. for 90 seconds, followed by further reaction at 72° C. for 7 minutes.
Recombinant human DGAT2 protein was expressed in Sf-21 cells, which are insect cells, by using the BacPack baculovirus expression system (Clontech). The brief manufacturing process is as follows. First, the pBacPAK9-DGAT2 expression vector was transfected with BacPAK6 virus DNA (Bsu36I digest) into sf21 cells using Bacfectin to prepare a recombinant DGAT2 expressing baculovirus. The thus prepared baculovirus was infected with Sf-21 cells at 10 MOI (multiplicity of infection), and after 72 hours, infected insect cells were collected and membrane proteins were isolated. For membrane protein separation, the cell pellet was dissolved in a sucrose solution containing 250 mM sucrose, 10 mM Tris (pH 7.4), and 1 mM ethylenediamine-tetraacetic acid (EDTA), and then homogenized by using a dounce homogenizer, and the supernatant was taken by centrifuging at 600×g for 15 minutes, and centrifuged at 100,000×g for 1 hour to discard the supernatant, and the remaining pellet was resuspended in 20 mM HEPES buffer (pH 7.4). The prepared DGAT2 overexpressing membrane protein was dispensed in 100 μl and stored at −80° C. until use. Protein concentration was quantified by using the BCA Protein Assay Kit (Thermo Scientific).
In vitro DGAT2 analysis was performed using a Phospholipid Flash Plate (PerkinElmer) based on the principle of SPA (Scintilation Proximity Assay). First, DGAT2 inhibition compounds serially diluted 5 times from 3 nM to 10 μM (final concentration, 1% DMSO) were mixed in a buffer solution containing 2 μg DGAT2-membrane protein and 20 mM HEPES, 20 mM MgCl2, 1 mg/mL BSA, 50 μM 1,2 sn-oleoyl glycerol (Sigma), put in a 96-well flash plate (FlashPlate) and reacted at 37° C. for 20 minutes, and then 1 μM [14C] ole oil CoA (PerkinElmer, NEC651050UC) was added to be a final volume of 100 μL and further reacted at 37° C. for 15 minutes. After the enzymatic reaction was completed, 100 μL of isopropanol was added, the plate was sealed with a film, and the plate was shaken slowly in a plate shaker. The next day, the amplified scintillation signal (cpm) in Topcounter (Packard) was measured to measure the degree of production of [14C]-labeled triacyl glycerol (TG) as a reaction product. The measured value when the compound was not treated was used as a positive control, and the measured value of the compound treated group was calculated as a relative % to measure the inhibition effect of the compound on TG production.

| Compound | IC50 |
| --- | --- |
| CCOc1ccccc1O[C@@H]1CCCN(c2cncc(Nc3nccc(-c4cccc(C(=O)O)n4)n3)n2)C1 [Example 139, (R)-6-(2-((6-(3-(2-ethoxyphenoxy)piperidin-1-yl)pyrazin-2-yl)amino)pyrimidin-4-yl)picolinic Acid] | > 10000 nM |
| CCOc1ccccc1O[C@@H]1CCCN(c2cncc(Nc3ccccc3)n2)C1 [Example 24, (R)—N-6-(3-(2-ethoxyphenoxy)piperidin-1-yl)-N-phenylpyrazin-2-amine] | 5500 nM |
| CCOc1ccccc1O[C@@H]1CCCN(c2cncc(Nc3cccc(Oc4cccc(CC(=O)O)c4)n3)n2)C1 [Example 95, (R)-2-(3-((6-((6-(3-(2-ethoxyphenoxy)piperidin-1-yl)pyrazin-2-yl)amino)pyridin-2-yl)oxy)phenyl)acetic Acid] | 83 nM |
| CCOc1cccnc1O[C@@H]1CCCN(c2cncc(Nc3cccc(Oc4cccc(C(=O)O)c4)n3)n2)C1 [Example 88, (R)-3-((6-((6-(3-((3-ethoxypyridin-2-yl)oxy)piperidin-1-yl)pyrazin-2-yl)amino)pyridin-2-yl)oxy)benzoic Acid] | 1300 nM |
| CCOc1ccccc1O[C@@H]1CCCN(c2cncc(Nc3ccnc(-c4cccc(C(C)(C)C(=O)O)c4)n3)n2)C1 [Example 168, (R)-2-(3-(4-((6-(3-(2-ethoxyphenoxy)piperidin-1-yl)pyrazin-2-yl)amino)pyrimidin-2-yl)phenyl)-2-methylpropanoic Acid] | 420 nM |
| CCOc1ccccc1O[C@@H]1CCCN(c2cncc(Nc3cc(C(C)(C)COCCOC)no3)n2)C1 [Example 8, (R)—N-(6-(3-(2-ethoxyphenoxy)piperidin-1-yl)pyrazin-2-yl)-3-(1-(2-methoxyethoxy)-2-methylpropan-2-yl)isooxazol-5-amine] | 550 nM |
| CCOc1ccccc1O[C@@H]1CCCN(c2cncc(Nc3ncccc3C(=O)O)n2)C1 [Example 34, (R)-2-((6-(3-(2-ethoxyphenoxy)piperidin-1-yl)pyrazin-2-yl)amino)nicotinic Acid] | > 10000 nM |
| CCOc1ccccc1O[C@@H]1CCCN(c2cncc(Nc3ccnc(-c4cccc(CC(C)(C)C(=O)O)c4)n3)n2)C1 [Example 170, (R)-3-(3-(4-((6-(3-(2-ethoxyphenoxy)piperidin-1-yl)pyrazin-2-yl)amino)pyrimidin-2-yl)phenyl)-2,2-dimethylpropanoic Acid] | 250 nM |

The remaining lines, values ahead:

| IC50 | Compound |
| --- | --- |
| 550 nM | CCOc1ccccc1O[C@@H]1CCCN(c2nccc(Nc3nccc(-c4ccc(CC(C)(C)C(=O)O)cc4)n3)n2)C1 [Example 155, (R)-3-(4-(2-((2-(3-(2-ethoxyphenoxy)piperidin-1-yl)pyrimidin-4-yl)amino)pyrimidin-4-yl)phenyl)-2,2-dimethylpropanoic Acid] |
| 120 nM | CCOc1ccccc1O[C@@H]1CCCN(c2cncc(Nc3cccc(-c4ccc(OC(C)(C)C(=O)O)cc4)n3)n2)C1 [Example 82, (R)-2-(4-(6-((6-(3-(2-ethoxyphenoxy)piperidin-1-yl)pyrazin-2-yl)amino)pyridin-2-yl)phenoxy)-2-methylpropanoic Acid] |
| 250 nM | CCOc1ccccc1O[C@@H]1CCCN(c2cncc(Nc3nc4ccccc4o3)n2)C1 [Example 10, (R)—N-(6-(3-(2-ethoxyphenoxy)piperidin-1-yl)pyrazin-2-yl)benzo[d]oxazol-2-amine] |
| 59 nM | CCOc1ccccc1O[C@@H]1CCCN(c2cncc(Nc3nc4cc(Cl)ccc4o3)n2)C1 [Example 11, (R)-5-chloro-N-(6-(3-(2-ethoxyphenoxy)piperidin-1-yl)pyrazin-2-yl)benzo[d]oxazol-2-amine] |
| 300 nM | CCOc1cccnc1O[C@@H]1CCCN(c2cncc(Nc3ccc(F)c(-c4cccc(CC(C)(C)C(=O)O)c4)n3)n2)C1 [Example 103, (R)-3-(3-(6-((6-(3-((3-ethoxypyridin-2-yl)oxy)piperidin-1-yl)pyrazin-2-yl)amino)-3-fluoropyridin-2-yl)phenyl)-2,2-dimethylpropanoic Acid] |
